The results in this text go back to patent US20250163057A1, “DCN-1 MODULATING COMPOUNDS AND METHODS OF USE THEREOF” (Cellarity, Inc., priority 2023, published 2025).

Read-outs that look alike come from different tables or passages of the source. Some results are limits rather than exact numbers.

The subject of assay [1] is Cullin-3 (CUL3) neddylation. Kind of assay: AlphaLISA assay for Cullin-3 (CUL3) neddylation in TF 1 cells. Conditions: Homo sapiens, TF-1, 3 h, 3 hours treatment. In kind it is cell-based. In outline:
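Neddylated CUL3 was quantified by AlphaLISA in lysates of TF 1 cells exposed for 3 h to test compound in IMDM without supplements. Percent inhibition set between vehicle and 1 μM DI-1548 positive control; IC50 derived by Hill-equation fitting of dose-response curves.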

For assay [2], the target named is DCN1 (DCUND1) protein PONY domain (Homo sapiens (Human), UniProt Q96GG9). Briefly: TR-FRET assay, DCN1 binding with FAM-labeled probe. In outline: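 TR-FRET ratio (Tb-DCN1 to FAM-probe) read at 1, 5 and 24 hrs after compound addition. Protein: recombinant PONY domain from E. coli, biotinylated and coupled to streptavidin terbium. Either 5 nM DCN1 with 20 nM FAM-probe, or 0.31 nM DCN1 with 100 nM FAM-labelled plus 800 nM unlabelled probe.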

The subject of assay [3] is fetal hemoglobin gene HBG1. Briefly: HBG1 Nanostring Assay in CD34+ HSPC erythroid differentiation culture. It is filed as cell-based, human. Conditions: for Nanostring Ymax obs (%): relative to a control compound (C1); for EC50: Homo sapiens, 240 h, HBG1 induction, Day10 of erythroid differentiation. The protocol: A Nanostring Assay was performed to evaluate the ability of the compounds to induce expression of the fetal hemoglobin gene HBG1 in cells. The data are shown as EC50, with stronger inducers having a lower EC50 value and higher YMax.
Forty eight hours later (day −2), the cells were passaged at a density of 200,000 cells/ml (100 ul/well in 96well culture plate) in complete expantion media. The cells were plated at 200,000 cells/ml on day 0 and day 3, 400,000 cells/ml on day 5 in phase 1 erythroid differentiation containing StemSpan with 2.5 U/mL of EPO (R&D systems, 287-TC-500), 0.5 mg/mL of Holo-Transferrin (Sigma, T0665-500MG), 1× Glutamine (Gluta-Max) (Gibco, 35050-061), 5 μL/mL Lipid Mixture (Sigma, L0288-100ML), 50 ng/mL SCF (R&D Systems, 255-SV-050), 10 ng/mL IL-3 (R&D Systems, 203-IL010) and 10 ng/mL Insulin (Sigma, I9278-5ML) all 200 μl per well in 96 well culture plate. Cells were then passaged at 500,000 cells/ml and 200 μl per well on day 7 in phase 2 Erythroid differentiation (Phase 1 erythroid differentiation removing IL-3) until collection day (Day10). The culture conditions were used for both control DMSO as well as experimental treatments.
For all cell pasagings, cells were centrifuged at 300 g for 8 minutes at room temperature and cell number were normalized by MANTIS and Integra VIAFLO 384. All the compounds are diluted in DMSO and added to complete media by Formulatrix FAST and mixed starting from day −2. Cells were counted by Luna cell counter with AOPI Staining Solution (Nexcelom Bioscience, CS2-0106-25 mL) on day-2. Cells were counted by BD FACSCelesta Flow Cytometer with CountBright™ Plus Absolute Counting Beads (Thermal Fisher Scientific, C36995) and SYTOX AADvanced™ Ready Flow™ Reagent (Invitrogen, R37173) for other passages. Cells were cultured at 37° C. and 5% CO2. DMSO concentration was kept at 0.1% to minimize any effects to the cells by the vehicle. […] Compound plates were kept at room temperature to protect from light to avoid multiple freeze and thaw cycle.
On the collection day (Day10), 100K cells were collected and stored at −80° C. For direct hybridization for Nanostring, 100K cell pellet was lyzed in 25 μL of RLT (QIAGEN, 79216) with 1×β-Mercaptoethanol (Gibco, 21985-023) and shaked at 300-500 RPM for 5 minutes at room temperature. Cell lysate was stored in −80° C. after lysis.
All hybridizations were done in a total volume of 15 μL (3 μL of RNA lysate added to master mix of 12 μL probe A/B, capture probe/reporter probes, proteinase K and attenuation oligos suspended in hybridization buffer). Samples were hybridized at 67° C. for 22 hr. Following hybridization, the tripartide complexes were purified, immobilized by nCounter Prep Station and imaged by Digital Analyzer (nCounter MAX/FLEX Analysis System), to generate digital counts of barcodes corresponding to each target in the multiplexed reaction. Labeled barcodes obtained from unamplified extracts were counted at 555 images or field of view (FOV). The barcode counts for each sample were recorded in Reporter Code Count (RCC) files that are imported into nSolver analysis software (provided with CodeSet by NS) for quality control evaluation.
The quality control (QC) metric included limit of detection QC by checking for wells with less than 100 total counts for positive controls.
Hybridization signals were normalized against the ERCC positive controls and CodeSet Content (housekeeping gene). Briefly, this involved first calculating a sample-specific scaling factor by calculating arithmetic mean of geomeans of all ERCC positive controls with counts more than zero in all samples. Then this arithmetic mean was divided by the geometric mean of each lane to generate a lane-specific normalization factor. All negative controls and target-specific signal values were then normalized by multiplying counts values with their sample-specific scaling factor. The acceptable range for scaling factors is 0.3-3.0. […]

Where [4] appears, read: 24 hr after treatment with compound, read-out: TR FRET IC50 24 hr.
Where [5] appears, read: read-out: TR FRET IC50 1 hr, 1 hr after treatment with compound.
Where [6] appears, read: TR FRET IC50 1 hr (nM), 1 hr after treatment with compound.

Sequence of DCN1 (DCUND1) protein PONY domain (Q96GG9 60-248): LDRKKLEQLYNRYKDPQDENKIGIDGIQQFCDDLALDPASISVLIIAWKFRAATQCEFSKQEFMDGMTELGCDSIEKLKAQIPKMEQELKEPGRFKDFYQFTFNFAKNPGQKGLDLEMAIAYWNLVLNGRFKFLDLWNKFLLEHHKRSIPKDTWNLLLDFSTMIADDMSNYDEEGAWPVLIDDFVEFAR

For the compound `C=C(CN1CC2CC1C2)C(=O)NCc1nn(-c2ccccc2)c2c1[C@H](c1ccc(F)cc1)[C@H](NC(=O)c1cccc(C(F)(F)F)c1)C(=O)N2CC` (mixture of isomers) [Compound I-456], the IC50 in assay [1] was at most 100 nM; in assay [2] (setting [4]), at most 200 nM; in assay [2] (setting [5]) it was at most 200 nM. In assay [3], the “Nanostring Ymax obs (%)” value is “++ (Nanostring Ymax greater than 50.0 and less than or equal to 100.0)”.
Consider `C=C(CN1CC2(CCC2O)C1)C(=O)NCc1nn(-c2ccccc2)c2c1[C@H](c1ccc(F)cc1)[C@H](NC(=O)c1cccc(C(F)(F)F)c1)C(=O)N2CC` (mixture of isomers) [Compound I-458], for which the IC50 in assay [1] was at most 100 nM; in assay [2] (setting [4]) it was at most 200 nM; in assay [2] (setting [5]), at most 200 nM. Also, in assay [3], the “Nanostring Ymax obs (%)” value is “++ (Nanostring Ymax greater than 50.0 and less than or equal to 100.0)”.
As for `C=C(CN1C2COCC1C2)C(=O)NCc1nn(-c2ccccc2)c2c1[C@H](c1ccc(F)cc1)[C@H](NC(=O)c1cccc(C(F)(F)F)c1)C(=O)N2CC` (mixture of isomers) [Compound I-573], the results for the IC50 in assay [1], in assay [2] (setting [4]) and in assay [2] (setting [5]) were at most 100 nM, at most 200 nM and at most 200 nM, respectively. The “Nanostring Ymax obs (%)” value in assay [3] was “++ (Nanostring Ymax greater than 50.0 and less than or equal to 100.0)”.
In the case of `CCN1C(=O)[C@@H](NC(=O)c2cccc(C(F)(F)F)c2)[C@@H](c2ccc(F)cc2)c2c([C@H](CCO)NC#N)nn(-c3ccccc3)c21` (mixture of isomers) [Compound I-576], the IC50 was at most 100 nM in assay [1], at most 200 nM in assay [2] (setting [4]) and 200 to 1000 nM in assay [2] (setting [6]). Further, the EC50 in assay [3] was over 1000 nM. For the same compound, in assay [3], the “Nanostring Ymax obs (%)” value is “+ (Nanostring Ymax greater than or equal to 0.0 and less than or equal to 50.0)”.
`C=C(CN1C2CCC1COC2)C(=O)NCc1nn(-c2ccccc2)c2c1[C@H](c1ccc(F)cc1)[C@H](NC(=O)c1cccc(C(F)(F)F)c1)C(=O)N2CC` (mixture of isomers) [Compound I-613]: the IC50 was at most 100 nM in assay [1], at most 200 nM in assay [2] (setting [4]) and at most 200 nM in assay [2] (setting [5]). Besides, the “Nanostring Ymax obs (%)” value in assay [3] was “+++ (Nanostring Ymax greater than 100.0)”.
With `C=C(CN1CCN(C2COC2)CC1)C(=O)NCc1nn(-c2ccccc2)c2c1[C@@H](c1ccc(F)cc1)[C@H](NC(=O)c1cccc(C(F)(F)F)c1)C(=O)N2CC` (racemic) [Compound I-40], the figures for the IC50 in assay [1], in assay [2] (setting [4]) and in assay [2] (setting [5]) were at most 100 nM, at most 200 nM and at most 200 nM, respectively. In addition, the “Nanostring Ymax obs (%)” value in assay [3] was “++ (Nanostring Ymax greater than 50.0 and less than or equal to 100.0)”.
As to `C=C(CN(C)C1COC1)C(=O)NCc1nn(-c2ccccc2)c2c1[C@H](c1ccc(F)cc1)[C@H](NC(=O)c1cccc(C(F)(F)F)c1)C(=O)N2CC` (racemic) [Compound I-102], the values for the IC50 in assay [1], in assay [2] (setting [4]) and in assay [2] (setting [5]) were at most 100 nM, at most 200 nM and at most 200 nM, respectively. Further, the “Nanostring Ymax obs (%)” value in assay [3] was “++ (Nanostring Ymax greater than 50.0 and less than or equal to 100.0)”.
On to `CCN1C(=O)[C@@H](NC(=O)c2cccc(C(F)(F)F)c2)[C@@H](c2ccc(F)cc2)c2c(CNC/C=C/C(=O)OC)nn(-c3ccccc3)c21` (racemic) [Compound I-127, rac-methyl I-4-((((4R,5R)-7-ethyl-4-(4-fluorophenyl)-6-oxo-1-phenyl-5-(3-(trifluoromethyl)benzamido)-4,5,6,7-tetrahydro-1H-pyrazolo[3,4-b]pyridine-3-yl)methyl)amino)but-2-enoate], for which the IC50 in assay [1] was at most 100 nM; in assay [2] (setting [4]) it was at most 200 nM; in assay [2] (setting [6]), at most 200 nM. In assay [3], this compound showed an EC50 of 100 to 1000 nM. Also, in assay [3], the “Nanostring Ymax obs (%)” value is “++ (Nanostring Ymax greater than 50.0 and less than or equal to 100.0)”.
Turning to `CCN1C(=O)[C@@H](NC(=O)c2cccc(C(F)(F)F)c2)[C@@H](c2ccc(F)cc2)c2c(CN(C#N)CCCO)nn(-c3ccccc3)c21` (racemic) [Compound I-246, N-[rac-(4S,5S)-3-[[cyano(3-hydroxypropyl)amino]methyl]-7-ethyl-4-(4-fluorophenyl)-6-oxo-1-phenyl-4,5-dihydropyrazolo[3,4-b]pyridine-5-yl]-3-(trifluoromethyl)benzamide], the figures for the IC50 in assay [1], in assay [2] (setting [4]) and in assay [2] (setting [6]) were 100 to 1000 nM, 200 to 1000 nM and 200 to 1000 nM, respectively. The compound also displayed an EC50 in assay [3] of over 1000 nM. Moreover, the “Nanostring Ymax obs (%)” value in assay [3] is “++ (Nanostring Ymax greater than 50.0 and less than or equal to 100.0)”.
In the case of `CCN1C(=O)[C@@H](NC(=O)c2cccc(C(F)(F)F)c2)[C@@H](c2ccc(F)cc2)c2c(CN(C)C/C=C/C(=O)OC)nn(-c3ccccc3)c21` (racemic) [Compound I-250, rac-methyl I-4-((((4R,5R)-7-ethyl-4-(4-fluorophenyl)-6-oxo-1-phenyl-5-(3-(trifluoromethyl)benzamido)-4,5,6,7-tetrahydro-1H-pyrazolo[3,4-b]pyridine-3-yl)methyl)(methyl)amino)but-2-enoate], the IC50 in assay [1] was at most 100 nM; in assay [2] (setting [4]), at most 200 nM; in assay [2] (setting [6]), 200 to 1000 nM. For the same compound, the EC50 in assay [3] was over 1000 nM. Besides, in assay [3], the “Nanostring Ymax obs (%)” value is “++ (Nanostring Ymax greater than 50.0 and less than or equal to 100.0)”.
With `C=C(CN(C)C1COC1)C(=O)NCc1nn(-c2ccccc2)c2c1[C@@H](c1ccc(F)cc1)[C@H](NC(=O)c1cccc(C(F)(F)F)c1)C(=O)N2CC` (racemic) [Compound I-491], the IC50 in assay [1] is at most 100 nM; in assay [2] (setting [4]), at most 200 nM; in assay [2] (setting [6]), 200 to 1000 nM. Besides, the EC50 in assay [3] is at most 100 nM. Moreover, the “Nanostring Ymax obs (%)” value in assay [3] was “++ (Nanostring Ymax greater than 50.0 and less than or equal to 100.0)”.
On to `C=C(CN1CCC1)C(=O)NCc1nn(-c2ccccc2)c2c1[C@H](c1ccc(F)cc1)[C@H](NC(=O)c1cccc(C(F)(F)F)c1)C(=O)N2CC` [Compound I-2], for which the IC50 in assay [1] was at most 100 nM; in assay [2] (setting [4]), at most 200 nM; in assay [2] (setting [5]) it was at most 200 nM. In addition, the “Nanostring Ymax obs (%)” value in assay [3] is “++ (Nanostring Ymax greater than 50.0 and less than or equal to 100.0)”.
Regarding `CCN1C(=O)[C@@H](NC(=O)c2cccc(C(F)(F)F)c2)[C@@H](c2ccc(F)cc2)c2c(CN(C#N)CCCN(C)C)nn(-c3ccccc3)c21` [Compound I-247, ˜{N}-[(4˜{S},5˜{S})-3-[[cyano-[3-(dimethylamino)propyl]amino]methyl]-7-ethyl-4-(4-fluorophenyl)-6-oxo-1-phenyl-4,5-dihydropyrazolo[3,4-b]pyridine-5-yl]-3-(trifluoromethyl)benzamide], the IC50 was at most 100 nM in assay [1], at most 200 nM in assay [2] (setting [4]) and at most 200 nM in assay [2] (setting [5]). Also, in assay [3], the EC50 was over 1000 nM. In addition, the “Nanostring Ymax obs (%)” value in assay [3] is “++ (Nanostring Ymax greater than 50.0 and less than or equal to 100.0)”.
